Results on 16 compounds are retold here after PubChem BioAssay (NCI).

The structures appear in SMILES notation.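 Growth conditions: 96-well plates. Treatment: test compound, 48 hours, 5 concentrations. Analysis: linear interpolation between bracketing concentrations; unreached endpoints set to highest concentration. At the TGI there is no net growth.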

Among the test systems are MDA-MB-435; CAKI-1 renal; HS 578T breast; DU-145 prostate; PC-3 prostate; COLO 205 colon; OVCAR-8 ovarian; ACHN renal; LOX IMVI melanoma; T-47D breast; MDA-MB-231 breast; MCF7 breast; MDA-N; HL-60(TB) leukemia; SR leukemia; SNB-19 CNS; XF 498 CNS; EKVX NSCLC; 786-0 renal.
Holding throughout (assay): DTP human tumour cell line panel, 48 h

For `CCC(C)C(=O)OC1C(=O)OC2CC3C(C)=CC(=O)C(O)C3(C)C3C4(O)OCC23C1C(C)C4O` (stereo unspecified), the TGI stood at 0.0723 µM in the experiment with MDA-MB-435; 7.44 µM in the experiment on CAKI-1 renal; 0.275 µM in the experiment on HS 578T breast; 0.0977 µM in the experiment on DU-145 prostate; 0.481 µM in the experiment on PC-3 prostate; 0.757 µM in the experiment on COLO 205 colon. Further, the TGI in the experiment on OVCAR-8 ovarian is 0.0634 µM; in the experiment with ACHN renal it was 0.257 µM; with LOX IMVI melanoma, 0.0154 µM; with T-47D breast, 0.158 µM; in the experiment on MDA-MB-231 breast it was 0.161 µM; in the experiment on MCF7 breast it was > 100 µM. In addition, in the experiment with MDA-N, the TGI is 0.232 µM.
As for `CCOC(=O)/C=C/CC(C)(C)COC(C)=O`, the TGI with MDA-MB-435, in the experiment with HS 578T breast, in the experiment with DU-145 prostate, with PC-3 prostate, in the experiment with ACHN renal and with LOX IMVI melanoma was > 10 µM in each case. The TGI in the experiment on T-47D breast, with MDA-MB-231 breast, in the experiment with HL-60(TB) leukemia, in the experiment on MCF7 breast, with MDA-N and in the experiment with SR leukemia was > 10 µM in each case.
Regarding `CCN(CC)C(=O)c1cc(OC(C)C)ccc1-c1c(C)cc(OC(C)C)c(OC)c1OC`, the TGI in the experiment with SNB-19 CNS was > 100 µM; in the experiment on CAKI-1 renal, > 100 µM; in the experiment on COLO 205 colon it was > 100 µM; in the experiment with OVCAR-8 ovarian, > 100 µM; with ACHN renal, > 100 µM; with XF 498 CNS, 73.9 µM. Moreover, the concentration for total growth inhibition (TGI) in the experiment with LOX IMVI melanoma was > 100 µM; with HL-60(TB) leukemia, 96.4 µM; with EKVX NSCLC, > 100 µM; in the experiment on SR leukemia it was > 100 µM.
With `CCOC(=O)C1(CO)CSCCSC1`, the TGI with SNB-19 CNS, in the experiment on MDA-MB-435, in the experiment with HS 578T breast, in the experiment on DU-145 prostate, in the experiment on PC-3 prostate and in the experiment with COLO 205 colon was > 100 µM in each case. Further, the TGI in the experiment with OVCAR-8 ovarian, with ACHN renal, in the experiment with LOX IMVI melanoma, in the experiment with MDA-MB-231 breast, in the experiment with MCF7 breast and in the experiment on MDA-N was > 100 µM each time. In addition, the TGI in the experiment with SR leukemia is > 100 µM.
`CC(=O)c1c(-c2ccc(Cl)cc2)c(-c2ccc(Cl)cc2)n[nH]c1=O`: the TGI in the experiment with SNB-19 CNS, in the experiment on MDA-MB-435, in the experiment with CAKI-1 renal, with HS 578T breast, in the experiment with DU-145 prostate and in the experiment on 786-0 renal was > 100 µM each time. For the same compound, the TGI with PC-3 prostate was > 100 µM; in the experiment on COLO 205 colon it was > 100 µM; with OVCAR-8 ovarian, > 100 µM; in the experiment with ACHN renal it was 66.1 µM; in the experiment with LOX IMVI melanoma it was 73.9 µM; with T-47D breast, > 100 µM. Further, the TGI is 86.4 µM in the experiment on MDA-MB-231 breast; 68.8 µM in the experiment with HL-60(TB) leukemia; > 100 µM in the experiment on EKVX NSCLC; > 100 µM in the experiment on MCF7 breast; > 100 µM in the experiment with MDA-N; > 100 µM with SR leukemia.
Consider `Cc1[nH]c(=O)[nH]c(=O)c1/C=C/C(=O)NC(CO)CC(C)C` (stereo unspecified), for which the TGI with SNB-19 CNS is > 375 µM; in the experiment with CAKI-1 renal it was 310 µM; in the experiment on COLO 205 colon, > 375 µM; with OVCAR-8 ovarian, > 237 µM; in the experiment with XF 498 CNS, > 346 µM; with LOX IMVI melanoma, > 375 µM. Moreover, the TGI in the experiment on HL-60(TB) leukemia, with EKVX NSCLC and with MCF7 breast was > 375 µM in each case.
On to `NC(=O)NC1NC(=O)NC1=O` (stereo unspecified), for which the TGI in the experiment on SNB-19 CNS, with MDA-MB-435, in the experiment on CAKI-1 renal, in the experiment with HS 578T breast, in the experiment with DU-145 prostate and in the experiment with 786-0 renal was > 100 µM each time. In addition, the TGI with PC-3 prostate, in the experiment on COLO 205 colon, with OVCAR-8 ovarian, in the experiment on ACHN renal, in the experiment on LOX IMVI melanoma and in the experiment on T-47D breast was > 100 µM throughout. In addition, the TGI with MDA-MB-231 breast, in the experiment on HL-60(TB) leukemia, in the experiment with EKVX NSCLC, in the experiment with MCF7 breast, in the experiment with MDA-N and with SR leukemia was > 100 µM in each case.
For `C1=C(CC2=C[P+](c3ccccc3)(c3ccccc3)C=C(c3ccccc3)O2)OC(c2ccccc2)=C[P+]1(c1ccccc1)c1ccccc1`, the TGI worked out at 1.25 µM in the experiment on SNB-19 CNS; 1.11 µM with MDA-MB-435; 5.39 µM in the experiment with CAKI-1 renal; 1.73 µM with DU-145 prostate; 2.07 µM in the experiment with 786-0 renal; 1.4 µM in the experiment with PC-3 prostate. Further, the TGI in the experiment on COLO 205 colon was found to be 0.301 µM; with OVCAR-8 ovarian, 0.69 µM; with ACHN renal, 1.98 µM; with LOX IMVI melanoma, 1.67 µM; in the experiment with MDA-MB-231 breast it was 0.938 µM; with HL-60(TB) leukemia it was 0.446 µM. Also, the TGI with EKVX NSCLC came out at 1.68 µM; in the experiment with MDA-N, 1.22 µM; with SR leukemia it was 0.538 µM.
In the case of `NC(CSS(=O)(=O)O)=NC1CC2CCC1C2` (stereo unspecified), the TGI in the experiment on SNB-19 CNS, with MDA-MB-435, in the experiment on CAKI-1 renal, in the experiment with HS 578T breast, in the experiment on DU-145 prostate and with 786-0 renal was > 100 µM each time. Besides, the TGI in the experiment on PC-3 prostate, in the experiment on COLO 205 colon, in the experiment on OVCAR-8 ovarian, in the experiment with ACHN renal, in the experiment on LOX IMVI melanoma and in the experiment on T-47D breast was > 100 µM in each case. Besides, the TGI in the experiment with MDA-MB-231 breast, in the experiment with HL-60(TB) leukemia, in the experiment with MCF7 breast, in the experiment with MDA-N and in the experiment with SR leukemia was > 100 µM each time.
In the case of `[O-][n+]1nc(N2CCOCC2)nc2ccccc21`, the TGI in the experiment with SNB-19 CNS, in the experiment with MDA-MB-435, in the experiment on CAKI-1 renal, in the experiment on HS 578T breast, with DU-145 prostate and in the experiment with 786-0 renal was > 100 µM each time. Further, the TGI in the experiment on PC-3 prostate, in the experiment with COLO 205 colon, in the experiment with OVCAR-8 ovarian, in the experiment with ACHN renal, in the experiment with LOX IMVI melanoma and in the experiment with T-47D breast was > 100 µM throughout. Besides, the TGI in the experiment on MDA-MB-231 breast, with HL-60(TB) leukemia, in the experiment with EKVX NSCLC, with MCF7 breast and with MDA-N was > 100 µM throughout.
For `CCC1CN2CCc3cc(OC)c(OC)cc3C2CC1CC1c2cc(OC)c(OC)cc2CCN1C(=O)C(N)Cc1ccccc1` (stereo unspecified), the TGI in the experiment with SNB-19 CNS was found to be 6.98 µM; in the experiment on CAKI-1 renal, 11.2 µM; with OVCAR-8 ovarian, 11.1 µM; in the experiment with ACHN renal, 11.8 µM; in the experiment on XF 498 CNS, 10.5 µM; in the experiment on LOX IMVI melanoma it was 10.9 µM. Moreover, the TGI stood at 4.8 µM in the experiment with HL-60(TB) leukemia, 4.37 µM in the experiment on EKVX NSCLC and 11.4 µM with SR leukemia.
`N=C1C(=N)c2ccccc2-c2ccccc21.[Cl-].[Ru+2].c1cnc2c(c1)ccc1cccnc12.c1cnc2c(c1)ccc1cccnc12`: the TGI in the experiment on 786-0 renal was > 100 µM; with OVCAR-8 ovarian, 95.6 µM; in the experiment on ACHN renal, 76.6 µM; in the experiment with LOX IMVI melanoma, 75.1 µM; with HL-60(TB) leukemia, 54 µM; with EKVX NSCLC, 93.5 µM. The TGI with SR leukemia is > 100 µM.
As for `CC(C)=CCc1c(O)cc(O)c2c1OC(c1ccc(O)cc1)C(O)C2=O` (stereo unspecified), the TGI in the experiment with SNB-19 CNS was > 100 µM; with COLO 205 colon it was > 100 µM; in the experiment on OVCAR-8 ovarian, > 100 µM; in the experiment with ACHN renal it was 82.9 µM; with XF 498 CNS, 70.3 µM; with LOX IMVI melanoma, 35.7 µM. In the experiment with EKVX NSCLC, this compound gave a TGI of 56.3 µM.
Regarding `CC(=O)OC1C=C(C=O)C(O)(C=O)C2(C)CCCC(C)(C)C12` (stereo unspecified), the TGI with SNB-19 CNS came to 12 µM; with CAKI-1 renal it was 3.15 µM; in the experiment on COLO 205 colon, 2.75 µM; with OVCAR-8 ovarian, 4.6 µM; in the experiment with XF 498 CNS it was 4.3 µM; in the experiment with LOX IMVI melanoma, 2.93 µM. Moreover, the TGI in the experiment on HL-60(TB) leukemia was 0.895 µM; in the experiment on EKVX NSCLC it was 6.13 µM; with MCF7 breast it was 5.49 µM.
Take `NCC(Cl)C(O)c1cnc(N)[nH]1` (stereo unspecified): the TGI in the experiment on SNB-19 CNS is 19.3 µM; in the experiment on CAKI-1 renal, 4.35 µM; in the experiment on COLO 205 colon it was 5.51 µM; with OVCAR-8 ovarian it was 15.5 µM; in the experiment with XF 498 CNS, 9.23 µM; in the experiment with LOX IMVI melanoma, 16.8 µM. Also, the TGI was 25.4 µM in the experiment on HL-60(TB) leukemia, 8.53 µM in the experiment with EKVX NSCLC and > 65.5 µM in the experiment with MCF7 breast.
For the compound `C=C(C)C1CC=C(C)C(=O)C1` (stereo unspecified), the TGI with SNB-19 CNS, with MDA-MB-435, in the experiment on CAKI-1 renal, with HS 578T breast, with DU-145 prostate and with 786-0 renal was > 100 µM each time. Moreover, the TGI in the experiment with PC-3 prostate, in the experiment on COLO 205 colon, in the experiment with OVCAR-8 ovarian, in the experiment with ACHN renal, in the experiment with LOX IMVI melanoma and in the experiment on T-47D breast was > 100 µM throughout. Besides, the TGI with MDA-MB-231 breast, in the experiment with HL-60(TB) leukemia, with EKVX NSCLC, in the experiment on MCF7 breast, in the experiment with MDA-N and in the experiment on SR leukemia was > 100 µM each time.

Usually TGI stands for the concentration giving total growth inhibition.
